Test results published in patent US8722849B2, “Polypeptides” (Novo Nordisk A/S, priority 2011, dated 2014).
Starred links: 1 amine or outer side, 2 acyl side, 3 side chain; linkers in the order of their positions; H or OH if unused. Positions of bridges follow the written chain, without caps; N, C: chain ends. Residues, ends and D or L forms follow the SMILES beside them. Groups on a side chain read outwards from the residue. *: point of attachment. C20 diacid = O=C(O)CCCCCCCCCCCCCCCCCCC(=O)*; C18 diacid = O=C(O)CCCCCCCCCCCCCCCCC(=O)*; γGlu = O=C(O)[C@H](CCC(=O)[*:2])N[*:1]; AEEA = NCCOCCOCC(=O)O

Experiment: Assay (III) ThT fibrillation assay for physical stability
Type: physicochemical
From the text: ASSAY (III)—ThT Fibrillation Assays for the Assessment of Physical Stability of Protein formulations Low physical stability of a polypeptide may lead to amyloid fibril formation, which is observed as well-ordered, thread-like macromolecular structures in the sample eventually resulting in gel formation. This has traditionally been measured by visual inspection of the sample. However, that kind of measurement is very subjective and depending on the observer. Therefore, the application of a small molecule indicator probe is much more advantageous. Thioflavin T (ThT) is such a probe and has a distinct fluorescence signature when binding to fibrils [Naiki et al. (1989) Anal. Biochem. 177, 244-249; LeVine (1999) Methods. Enzymol. […], 274-284]. The time course for fibril formation can be described by a sigmoidal curve with the following expression [Nielsen et al. (2001) Biochemistry 40, 6036-6046]: [formula] Here, F is the ThT fluorescence at the time t. The constant t0 is the time needed to reach 50% of maximum fluorescence. […] Few of those intermediates nucleate to form a template onto which further intermediates may assembly and the fibrillation proceeds. The lag-time corresponds to the interval in which the critical mass of nucleus is built up and the apparent rate constant is the rate with which the fibril itself is formed. Sample Preparation Samples were prepared freshly before each assay. Each sample composition is described in each example. The pH of the sample was adjusted to the desired value using appropriate amounts of concentrated NaOH and HClO4 or HCl. Thioflavin T was added to the samples from a stock solution in H2O to a final concentration of 1 μM. Sample aliquots of 200 μl were placed in a 96 well microtiter plate (Packard OptiPlate™-96, white polystyrene). Usually, four or eight replica of each sample (corresponding to one test condition) were placed in one column of wells. The plate was sealed with Scotch Pad (Qiagen). Incubation and Fluorescence Measurement Incubation at given temperature, shaking and measurement of the ThT fluorescence emission were done in a Fluoroskan Ascent FL fluorescence platereader or Varioskan platereader (Thermo Labsystems). The temperature was adjusted to 37° C. The orbital shaking was adjusted to 960 rpm with an amplitude of 1 mm in all the presented data. Fluorescence measurement was done using excitation through a 444 nm filter and measurement of emission through a 485 nm filter. Each run was initiated by incubating the plate at the assay temperature for 10 min. The plate was measured every 20 minutes for a desired period of time. Between each measurement, the plate was shaken and heated as described. Data Handling The measurement points were saved in Microsoft Excel format for further processing and curve drawing and fitting was performed using GraphPad Prism. The background emission from ThT in the absence of fibrils was negligible. The data points are typically a mean of four or eight samples and shown with standard deviation error bars. Only data obtained in the same experiment (i.e. samples on the same plate) are presented in the same graph ensuring a relative measure of fibrillation between experiments. The data set may be fitted to Eq. (1). However, since full sigmodial curves in this case are not always achieved during the measurement time, the degree of fibrillation is expressed as ThT fluorescence tabulated as the mean of the samples and shown with the standard deviation at various time points. Measurement of Initial and Final Concentrations The polypeptide concentration in each of the tested formulations were measured both before application in the ThT fibrillation assay (“Initial”) and after completion of the ThT fibrillation (“After ThT assay”). Concentrations were determined by reverse HPLC methods using a pramlintide standard as a reference. Before measurement after completion 150 μl was collected from each of the replica and transferred to an Eppendorf tube. […]

SMILES	ThT pH 4.0 lag time (h) (ThT fibrillation assay)	ThT pH 4.0 lag time (Table 8)	ThT pH 4.0 lag time (Table 9)	ThT pH 4.0 lag time (ThT fibrillation assay)
CC(C)C[C@H](NC(=O)[C@H](CCCNC(=N)N)NC(=O)[C@H](CCC(N)=O)NC(=O)[C@@H](NC(=O)[C@H](C)NC(=O)[C@@H]1CSSC[C@H](NC(=O)[C@H](Cc2c[nH]cn2)NC(=O)CC[C@H](NC(=O)CCCCCCCCCCCCCCCCCCC(=O)O)C(=O)O)C(=O)N[C@@H](CC(N)=O)C(=O)N[C@@H]([C@@H](C)O)C(=O)N[C@@H](C)C(=O)N[C@@H]([C@@H](C)O)C(=O)N1)[C@@H](C)O)C(=O)N[C@@H](C)C(=O)N[C@@H](CCC(=O)O)C(=O)N[C@@H](Cc1ccccc1)C(=O)N[C@@H](CC(C)C)C(=O)N[C@@H](Cc1c[nH]cn1)C(=O)N[C@@H](CCCNC(=N)N)C(=O)N[C@@H](CO)C(=O)N[C@@H](CO)C(=O)N[C@@H](CC(N)=O)C(=O)N[C@@H](CC(N)=O)C(=O)N[C@@H](Cc1ccccc1)C(=O)NCC(=O)N[C@@H](C)C(=O)N1CCC[C@H]1C(=O)N[C@@H](CC(C)C)C(=O)N[C@@H](CO)C(=O)N[C@@H](CO)C(=O)N[C@H](C(=O)N[C@@H](CC(N)=O)C(=O)N[C@H](C(=O)NCC(=O)N[C@@H](CO)C(=O)N[C@@H](CC(N)=O)C(=O)N[C@H](C(=O)N[C@@H](Cc1ccc(O)cc1)C(N)=O)[C@@H](C)O)C(C)C)[C@@H](C)O [Example 6, N-alpha-[(S)-4-Carboxy-4-(19-carboxynonadecanoylamino)butyryl]-[His1,Glu14,His17,Arg18,Ala25,Pro26,Ser28,Ser29]-pramlintide] ({C20 diacid-γGlu}-HCNTATCATQRLAEFLHRSSNNFGAPLSSTNVGSNTY-NH2; disulfide 2-7 (inferred))	14 h			
CC[C@H](C)[C@H](NC(=O)[C@@H]1CCCN1C(=O)CNC(=O)[C@H](Cc1ccccc1)NC(=O)[C@H](CC(N)=O)NC(=O)[C@H](CCCCNC(=O)COCCOCCNC(=O)COCCOCCNC(=O)CC[C@H](NC(=O)CCCCCCCCCCCCCCCCC(=O)O)C(=O)O)NC(=O)[C@H](CO)NC(=O)[C@H](CO)NC(=O)[C@H](Cc1c[nH]cn1)NC(=O)[C@H](Cc1c[nH]cn1)NC(=O)[C@H](CC(C)C)NC(=O)[C@H](Cc1ccccc1)NC(=O)[C@H](CCC(=O)O)NC(=O)[C@H](C)NC(=O)[C@H](CC(C)C)NC(=O)[C@H](CCCNC(=N)N)NC(=O)[C@H](CCC(N)=O)NC(=O)[C@@H](NC(=O)[C@H](C)NC(=O)[C@@H]1CSSC[C@H](NC(=O)[C@@H](N)CCCCN)C(=O)N[C@@H](CC(N)=O)C(=O)N[C@@H]([C@@H](C)O)C(=O)N[C@@H](C)C(=O)N[C@@H]([C@@H](C)O)C(=O)N1)[C@@H](C)O)C(=O)N[C@@H](CC(C)C)C(=O)N1CCC[C@H]1C(=O)N1CCC[C@H]1C(=O)N[C@H](C(=O)N[C@@H](CC(N)=O)C(=O)N[C@H](C(=O)NCC(=O)N[C@@H](CO)C(=O)N[C@@H](CCC(=O)O)C(=O)N[C@H](C(=O)N[C@@H](Cc1ccc(O)cc1)C(N)=O)[C@@H](C)O)C(C)C)[C@@H](C)O [Example 74, N-epsilon21-[2-(2-{2-[2-(2-{2-[(S)-4-Carboxy-4-(17-carboxyheptadecanoylamino)butyrylamino]ethoxy}ethoxy)acetylamino]ethoxy}ethoxy)acetyl]-[Glu14,His17,Lys21,Glu35]-pramlintide] (H-KCNTATCATQRLAEFLHHSSK([AEEA-AEEA-γGlu-C18 diacid])NFGPILPPTNVGSETY-NH2; disulfide 2-7 (inferred))	>45 h	>45 h	>45 h	>45 h
CC[C@H](C)[C@H](NC(=O)[C@H](CCCCNC(=O)COCCOCCNC(=O)COCCOCCNC(=O)CC[C@H](NC(=O)CCCCCCCCCCCCCCCCC(=O)O)C(=O)O)NC(=O)CNC(=O)[C@H](Cc1ccccc1)NC(=O)[C@H](CC(N)=O)NC(=O)[C@H](CC(N)=O)NC(=O)[C@H](CO)NC(=O)[C@H](CO)NC(=O)[C@H](Cc1c[nH]cn1)NC(=O)[C@@H](NC(=O)[C@H](CC(C)C)NC(=O)[C@H](Cc1ccccc1)NC(=O)[C@H](CCC(=O)O)NC(=O)[C@H](C)NC(=O)[C@H](CC(C)C)NC(=O)[C@H](CCCNC(=N)N)NC(=O)[C@H](CCC(N)=O)NC(=O)[C@@H](NC(=O)[C@H](C)NC(=O)[C@@H]1CSSC[C@H](NC(=O)[C@@H](N)CCCCN)C(=O)N[C@@H](CC(N)=O)C(=O)N[C@@H]([C@@H](C)O)C(=O)N[C@@H](C)C(=O)N[C@@H]([C@@H](C)O)C(=O)N1)[C@@H](C)O)C(C)C)C(=O)N[C@@H](CC(C)C)C(=O)N1CCC[C@H]1C(=O)N1CCC[C@H]1C(=O)N[C@H](C(=O)N[C@@H](CC(N)=O)C(=O)N[C@H](C(=O)NCC(=O)N[C@@H](CO)C(=O)N[C@@H](CC(N)=O)C(=O)N[C@H](C(=O)N[C@@H](Cc1ccc(O)cc1)C(N)=O)[C@@H](C)O)C(C)C)[C@@H](C)O [Example 126, N-epsilon25-[2-(2-{2-[2-(2-{2-[(S)-4-Carboxy-4-(17-carboxyheptadecanoylamino)butyrylamino]ethoxy}ethoxy)acetylamino]ethoxy}ethoxy)acetyl]-[Glu14,Lys25]-pramlintide] (H-KCNTATCATQRLAEFLVHSSNNFGK([AEEA-AEEA-γGlu-C18 diacid])ILPPTNVGSNTY-NH2; disulfide 2-7 (inferred))	10 h			
CC(C)C[C@H](NC(=O)[C@H](CCCNC(=N)N)NC(=O)[C@H](CCC(N)=O)NC(=O)[C@@H](NC(=O)[C@H](C)NC(=O)[C@@H]1CSSC[C@H](NC(=O)[C@@H](N)CCCCNC(=O)CC[C@H](NC(=O)CCCCCCCCCCCCCCCCCCC(=O)O)C(=O)O)C(=O)N[C@@H](CC(N)=O)C(=O)N[C@@H]([C@@H](C)O)C(=O)N[C@@H](C)C(=O)N[C@@H]([C@@H](C)O)C(=O)N1)[C@@H](C)O)C(=O)N[C@@H](C)C(=O)N[C@@H](CCC(=O)O)C(=O)N[C@@H](Cc1ccccc1)C(=O)N[C@@H](CC(C)C)C(=O)N[C@@H](Cc1c[nH]cn1)C(=O)N[C@@H](Cc1c[nH]cn1)C(=O)N[C@@H](CO)C(=O)N[C@@H](CO)C(=O)N[C@@H](CCC(N)=O)C(=O)N[C@@H](CC(N)=O)C(=O)N[C@@H](Cc1ccccc1)C(=O)NCC(=O)N[C@@H](C)C(=O)N1CCC[C@H]1C(=O)N[C@@H](CC(C)C)C(=O)N[C@@H](CO)C(=O)N[C@@H](CO)C(=O)N[C@H](C(=O)N[C@@H](CC(N)=O)C(=O)N[C@H](C(=O)NCC(=O)N[C@@H](CO)C(=O)N[C@@H](CC(N)=O)C(=O)N[C@H](C(=O)N1CCC[C@H]1C(N)=O)[C@@H](C)O)C(C)C)[C@@H](C)O [Example 151, N-epsilon1-[(S)-4-Carboxy-4-(19-carboxynonadecanoylamino)butyryl]-[Glu14,His17,Gln21,Ala25,Pro26,Ser28,Ser29,Pro37]-pramlintide] (H-K([γGlu-C20 diacid])CNTATCATQRLAEFLHHSSQNFGAPLSSTNVGSNTP-NH2; disulfide 2-7 (inferred))	9 h			
